In ChEMBL document CHEMBL3860060, “Discovery and Optimization of 1-Phenoxy-2-aminoindanes as Potent, Selective, and Orally Bioavailable Inhibitors of the Na+/H+ Exchanger Type 3 (NHE3)” (J Med Chem, 2016):
Values belong to the molecule of their own block, whether it stands above or below them. Calls of active or inactive are those of the source. The rule behind the calls is not given here.

Tests used:
Homo sapiens [1] = species on record: Homo sapiens; assay: Inhibition of GABA-gated chloride channel (unknown origin) at 10 uM
Sus scrofa [2] = assay: Inhibition of upper airway collapsibility in urethane-chloralose anesthetized pig at 1 mg/kg, id after 4 hrs; format: functional, organism-based
Homo sapiens [3] = species on record: Homo sapiens; assay: Inhibition of PDE4 (unknown origin) at 10 uM
Sus scrofa [4] = assay: Inhibition of upper airway collapsibility in urethane-chloralose anesthetized pig at 3 mg/kg, id after 4 hrs; format: functional, organism-based
Cytochrome P450 2D6 = Cytochrome P450 2D6 (Homo sapiens, UniProt P10635)
Description: Inhibition of CYP2D6 in pooled human hepatic microsomes using dextromethorphan substrate in presence of NADPH

Cytochrome P450 3A4 = Cytochrome P450 3A4 (Homo sapiens, UniProt P08684); assay: Inhibition of CYP3A4 in pooled human hepatic microsomes using testosterone substrate in presence of NADPH; format: ADME, Liver
CYP2D6 [5] = target: T1, CYP2D6 (Homo sapiens, UniProt P10635); assay: Inhibition of CYP2D6 in pooled human hepatic microsomes at 10 uM using dextromethorphan substrate in presence of NADPH; format: ADME; conditions: pooled human liver microsomes, probe dextromethorphan
[6] = Permeability in human Caco2/TC7 cells assessed as total flux at 20 uM incubated for 2 hrs by LC-MS/MS method; format: ADME, cell-based; conditions: Caco-2, read-out: permeability
[7] = target: T2, Sodium/hydrogen exchanger 3 (Homo sapiens, UniProt P48764); assay: Inhibition of human NHE3 expressed in LAP1 cell assessed as intracellular pH recovery measured for 2 mins by CECF-AM dye based FLIPR assay
T2 sequence (P48764 whole entry): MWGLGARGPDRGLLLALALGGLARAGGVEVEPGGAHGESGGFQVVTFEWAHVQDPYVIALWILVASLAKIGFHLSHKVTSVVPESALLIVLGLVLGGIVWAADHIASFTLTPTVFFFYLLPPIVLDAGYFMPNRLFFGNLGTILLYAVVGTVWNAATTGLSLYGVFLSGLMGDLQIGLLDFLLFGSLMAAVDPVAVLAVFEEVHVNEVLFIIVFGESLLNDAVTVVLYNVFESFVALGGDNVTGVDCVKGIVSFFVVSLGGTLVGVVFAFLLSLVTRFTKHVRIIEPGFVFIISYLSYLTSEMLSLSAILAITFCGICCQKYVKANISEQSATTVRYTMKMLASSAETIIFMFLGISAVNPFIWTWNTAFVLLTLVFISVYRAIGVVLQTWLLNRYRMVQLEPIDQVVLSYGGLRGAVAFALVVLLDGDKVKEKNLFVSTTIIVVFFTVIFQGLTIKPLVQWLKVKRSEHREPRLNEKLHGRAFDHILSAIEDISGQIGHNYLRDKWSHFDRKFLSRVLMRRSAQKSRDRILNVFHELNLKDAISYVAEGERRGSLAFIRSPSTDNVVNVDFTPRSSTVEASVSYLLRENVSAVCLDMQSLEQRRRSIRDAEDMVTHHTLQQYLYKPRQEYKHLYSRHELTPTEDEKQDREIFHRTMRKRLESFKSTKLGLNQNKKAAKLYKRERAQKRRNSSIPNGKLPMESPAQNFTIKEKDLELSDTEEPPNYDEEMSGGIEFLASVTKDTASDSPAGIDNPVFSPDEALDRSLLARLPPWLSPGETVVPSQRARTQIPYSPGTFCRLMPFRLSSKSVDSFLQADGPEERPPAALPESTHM

CYP2D6 [8] = target: T1, CYP2D6; assay: Inhibition of CYP2D6 in pooled human hepatic microsomes assessed as remaining enzyme activity at 0.225 uM using […] substrate in presence of NADPH; format: ADME; conditions: pooled human liver microsomes, probe […], read-out: Activity

T1 sequence (P10635 whole entry): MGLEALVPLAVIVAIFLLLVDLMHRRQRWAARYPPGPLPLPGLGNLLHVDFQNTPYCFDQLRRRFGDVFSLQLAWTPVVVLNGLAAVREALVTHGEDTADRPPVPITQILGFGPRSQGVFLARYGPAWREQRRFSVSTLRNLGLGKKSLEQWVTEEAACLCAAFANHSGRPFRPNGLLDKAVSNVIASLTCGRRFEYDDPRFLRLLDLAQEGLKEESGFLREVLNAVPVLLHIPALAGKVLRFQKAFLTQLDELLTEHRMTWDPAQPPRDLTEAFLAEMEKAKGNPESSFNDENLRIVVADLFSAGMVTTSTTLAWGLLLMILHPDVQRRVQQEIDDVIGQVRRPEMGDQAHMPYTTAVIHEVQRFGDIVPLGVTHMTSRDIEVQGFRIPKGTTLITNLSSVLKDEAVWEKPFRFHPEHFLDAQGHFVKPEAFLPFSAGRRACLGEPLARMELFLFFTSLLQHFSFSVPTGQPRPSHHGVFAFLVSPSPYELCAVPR
Cytochrome P450 3A4, sequence (P08684 whole entry): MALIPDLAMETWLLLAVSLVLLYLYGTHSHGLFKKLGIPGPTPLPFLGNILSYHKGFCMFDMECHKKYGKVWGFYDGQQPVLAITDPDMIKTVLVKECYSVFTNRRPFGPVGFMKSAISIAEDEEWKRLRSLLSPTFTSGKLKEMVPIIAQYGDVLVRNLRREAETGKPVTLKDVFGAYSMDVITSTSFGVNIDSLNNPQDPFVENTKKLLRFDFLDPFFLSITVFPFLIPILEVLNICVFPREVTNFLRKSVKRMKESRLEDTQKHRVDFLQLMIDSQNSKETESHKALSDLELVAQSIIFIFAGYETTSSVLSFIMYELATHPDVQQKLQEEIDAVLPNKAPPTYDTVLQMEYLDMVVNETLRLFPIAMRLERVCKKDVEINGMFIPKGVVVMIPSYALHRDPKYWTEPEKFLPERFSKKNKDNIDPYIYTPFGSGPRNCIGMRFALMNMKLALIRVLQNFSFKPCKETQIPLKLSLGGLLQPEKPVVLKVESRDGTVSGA
Cytochrome P450 2D6, sequence (P10635 whole entry): as the sequence (P10635 whole entry) above

inhibition (Homo sapiens [1]): 55% | inhibition (Homo sapiens [3]): 54%
Compound: Cc1nnc(C)n1-c1ccc(O[C@H]2c3cc(Cl)cc(Cl)c3C[C@@H]2N2CC[C@@H](O)C2)c(F)c1 [listing 1 of 2 here]
inhibition (Sus scrofa [2]): Active | inhibition (Sus scrofa [4]): Active

IC50 (Cytochrome P450 2D6): > 10 µM | IC50 (Cytochrome P450 3A4): > 50 µM | inhibition at 10 µM (CYP2D6 [5]): 17% | Papp at 2 h, 20 µM [6]: 2.8 ×10⁻⁶ cm/s | IC50 [7]: 0.034 µM
Compound: Cc1nnc(C)n1-c1ccc(O[C@H]2c3cc(Cl)cc(Cl)c3C[C@@H]2N2CC[C@@H](O)C2)c(F)c1 [listing 2 of 2 here]

activity at 0.225 µM (CYP2D6 [8]): 21%
Compound: C=C[C@H]1C[N@@]2CC[C@H]1C[C@@H]2[C@@H](O)c1ccnc2ccc(OC)cc12 [QUINIDINE]
